Data published in patent US20030181449A1 (priority 2003, published 2003).
“And” between values parts separate entries of the source, which are not always exact repeats. Identical values can stand only once. Like-named read-outs stand apart in the source and are kept apart here.

How the values were obtained:
[1] = target: T1, NMDA receptor glycine site (Rattus norvegicus, UniProt P35439); test: Test A: Inhibition of binding of [3H]-MDL105,519 to brain membranes
T1 construct: The rat brain membranes used in the experiments were obtained from Analytical Biological Services Inc; tissue Analytical Biological Services Inc; host or cells: rat brain membranes (cerebral cortex and hippocampus, male Sprague Dawley rats)
From the text: Test A: Inhibition of Binding of [^3H]-MDL105,519:
Binding of compounds to the NMDA receptor glycine site may be assessed by measuring the ability of test compounds to inhibit the binding of tritiated MDL105,519 to brain membranes bearing the receptor.
Briefly, fresh brain tissue including cerebral cortex and hippocampus from male Sprague Dawley rats was homogenized in 0.32 M sucrose and centrifuged at low speed to separate cellular membranes from other cellular components. The membranes were then washed 3 times using deionized water, followed by treatment with 0.04% Triton X-100. Finally, membranes were washed six times in 50 mM Tris citrate buffer, pH 7.4, and frozen at −80° C. until use.
[^3H]MDL105,519 (72 Ci/mmol) was purchased from Amersham. Cold MDL105,519 was purchased from Sigma/RBI. […] On the day of the experiment, brain membranes were thawed at room temperature and suspended in 50 mM tris acetate buffer, pH 7.4 (“TAB”). Seventy-five micro grams per milliliter protein (by using the BioRad dye) were used for competition binding. The experiments were carried out using 96-well plates. […] Non specific binding was determined by using 100 μM of unlabeled MDL105,519. […] After incubation, unbound [^3H]MDL105,519 was removed by filtration onto GF/B Unifilter plates using a Packard harvester. Filters were washed four times with ice cold TAB (total of 1.2 mL buffer). The plates were dried overnight at room temperature and bound radioactivity was measured on a Packard TopCount after the addition of 45 μL per well of the MICROSCINT O.
Human Brain Membranes: Human brain membranes were obtained from Analytical Biological Services Inc., and assays were performed as described for rat membranes.
Data analysis: Data was analyzed using a Microsoft Excel spreadsheet and GraphPad Prizm software and potency of compounds is expressed as the Ki (nM).

[2] = tested on: formalin-induced nociceptive behaviors in rats; test: Test B: Formalin test (formalin-induced paw flinches); format: in vivo, rat; conditions: dose 200 (unit not given), dosed three hours prior to formalin
From the text: The Formalin test is an assay that assesses the capacity of a compound to inhibit formalin-induced nociceptive behaviors in rats (D. Dubuisson, et al., Pain 4, 161-174 (1977); H. Wheeler-Aceto et al., Psychopharmacology 104, 3544 (1991); T. J. Coderre, et al., Pain 54, 43-50 (1993)). In the test, two distinctive phases of formalin-induced behaviors are observed. A first phase response, caused by acute nociception to the noxious chemical (formalin) injected into the paw, occurs between zero and five minutes. A quiescent period of 5 to 15 min post injection follows. After the quiescent period a second phase response, caused by sensitization of the central neurons in the dorsal horn, occurs after 15 minutes and lasts up to 60 minutes. Sensitization of the central neurons in the spine augments a noxious afferent input and causes a stronger pain barrage to be transmitted to the brain. Therefore, inhibition of the second phase response indicates a central mechanism of drug action.
The procedure for the formalin test is as follows: male rats are placed in a plexiglass chamber and observed for 30-45 min. to observe their baseline activity. Animals are either pretreated with vehicle or with different doses of a test compound. Animals are dosed with vehicle or test compound three hours prior to injection of 0.05 mL of sterile 1% formalin under the dorsal skin of a hind paw. The number of paw flinches (responses) during the first phase (0-5 min.) and the second phase (20-35 min.) are scored and recorded. Flinch response is compared with the mean score of a saline control group and calculated as percentage inhibition. The ED50 is the dose of compound which produces 50% inhibition of nociceptive response in the first or second phase response. First phase responses may be inhibited by compounds that act peripherally and by compounds that act centrally. Second phase response are inhibited by centrally active compounds.
Student's t-test was used for statistical analysis to determine the significance of compound effects. Data are reported as a dose that yielded a % inhibition of a response.

[3] = tested on: CCI rats (thermal hyperalgesia); test: Test C: Neuropathic pain model (Chronic Constriction Injury), thermal hyperalgesia, paw withdrawal latency; format: in vivo, rat; conditions: oral; for Test C (% Inh.): percent decrease in hyperalgesia: at the MED; for Test C MED (minimum effective dose): three times daily for 5 days
From the text: Test C: Neuropathic Pain Model (Chronic Constriction Injury):
The anti-hyperalgesic properties of a compound may be tested with the Chronic Constriction Injury (“CCI”) model. The test is a model for neuropathic pain associated with nerve injuries that can arise directly from trauma and compression, or indirectly from a wide range of diseases such as infection, cancer, metabolic conditions, toxins, nutritional deficiencies, immunological dysfunction, and musculoskeletal changes. In the model a unilateral peripheral hyperalgesia is produced in rats by nerve ligation (G. J. Bennett, et al., Pain 33, 87-107 (1988)).
Procedurally, Sprague-Dawley rats (250-350 g) are anesthetized with sodium pentobarbital and the common sciatic nerve is exposed at the level of the mid thigh by blunt dissection through the biceps femoris. A section of nerve (about 7 mm), proximal to the sciatic trifucation, is freed of tissue and ligated at four positions with chromic gut suture. The suture is tied with about 1 mm spacing between ligatures. The incision is closed in layers and the animals are allowed to recuperate. Thermal hyperalgesia is measured using a paw-withdrawal test (K. Hargreaves, et al., Pain 32, 77-88 (1988)). To perform the test, animals are habituated on an elevated glass floor. A radiant heat source is aimed at the mid-plantar hindpaw (sciatic nerve territory) through the glass floor with a 20 second cut-off used to prevent injury to the skin. The latencies for the withdrawal reflex in both hind paws are recorded.
Injured paws with ligated nerves show shorter paw withdrawal latencies compared to the uninjured or sham operated paws. Responses to test compounds are evaluated at different times after oral administration to determine the onset and duration of compound effect. When performing the test, groups of CCI rats receive either vehicle or the test compound orally three times daily for 5 days. Paw withdrawal latencies are measured each day 10 min before and 2 or 3 hr. after the first daily dose. Compound efficacy is expressed as mean percentage decrease of hyperalgesia compared to that of vehicle-treated animals, calculated as follows:
(Mean of vehicle group−Mean of compound group)×100/(Mean of vehicle group).
Data analysis was performed by the multiple means comparison test (Dunnett's test) and results are expressed and compound potencies are expressed as the MED (minimum effective dose), in mg/Kg/day, that yields a percent (%) decrease in hyperalgesia that is statistically significant.

[4] = inhibition of 1.2 nM [3H]MDL105,519 binding, brain membranes (rat or human not given)

Compound	Ki [1, 4]	further results
CON(C)C(=O)c1cccc(Cn2nc(O)c3[nH]c4cc(Cl)ccc4c(=O)c3c2=O)c1	65 nM	
CC(C)NC(=O)c1ccc(Cn2nc(O)c3[nH]c4cc(Cl)ccc4c(=O)c3c2=O)cc1 [EX. 31, 7-chloro-4-hydroxy-2-(4-isopropylcarboxamide)phenylmethyl-1,2,5,10-tetrahydropyridazino[4,5-b]quinoline-1,10-dione]	41 nM	
O=C(NCc1ccco1)c1ccc(Cn2nc(O)c3[nH]c4cc(Cl)ccc4c(=O)c3c2=O)cc1 [Ex. 3, 7-Chloro-4hydroxy-2-(4-(furan-2-ylmethyl)aminocarbonyl)-benzyl-1,2,5,10-tetrahydropyridazino[4,5-b]quinoline-1,10-dione]		Test B First phase Dose (% Inh.): % inhibition of nociceptive response ([2]; first phase (0-5 min)): 200 (33%); Test B Second phase Dose (% Inh.): % inhibition of nociceptive response ([2]; second phase (20-35 min)): 200 (−18%); Ki [1]: 153 nM; Test C (% Inh.): percent decrease in hyperalgesia [3]: 96%; Test C MED (minimum effective dose) [3]: 30 mg/kg/day
O=c1c2ccc(Cl)cc2[nH]c2c(O)nn(Cc3ccc4nc[nH]c4c3)c(=O)c12 [Ex. 5, 7-Chloro-4-hydroxy-2-(benzimidazol-5-ylmethyl)-1,2,5,10-tetrahydropyridazino[4,5-b]quinoline-1,10-dione methanesulfonate]	117 nM	
Cc1cc(Cn2nc(O)c3[nH]c4cc(Cl)ccc4c(=O)c3c2=O)ccc1O [Ex. 6, 7-Chloro-4-hydroxy-2-(4-hydroxy-3-methyl-benzyl)-1,2,5,10-tetrahydropyridazino[4,5-b]quinoline-1,10-dione]	67.9 nM and 62.5 nM	
CSc1ccccc1Cn1nc(O)c2nc3cc(Cl)ccc3c(O)c2c1=O [Ex. 7, 7-Chloro-4,10-dihydroxy-2-[(2-methylthio)phenylmethyl]-2-hydropyridazino[4,5-b]quinoline-1-one]	111 nM	melting point: 290 to 292 °C
COC(=O)c1c(OC)cc(Cn2nc(O)c3[nH]c4cc(Cl)ccc4c(=O)c3c2=O)cc1OC [Ex. 8, 7-Chloro-2-(4-(2,6-dimethoxy)methylbenzoate)4hydroxy-1,2,5,10-tetrahydropyridazino[4,5-b]quinoline-1,10-dione]	35 nM	
CC(C)OC(=O)c1ccc(Cn2nc(O)c3[nH]c4cc(Cl)ccc4c(=O)c3c2=O)cc1 [Ex. 9, 7-Chloro-4-hydroxy-2-(4-iso-propoxycarbonylbenzyl)-1,2,5,10-tetrahydropyridazino[4,5-b]quinoline-1,10-dione]	91 nM	
CN(C)C(=O)Nc1ccc(Cn2nc(O)c3[nH]c4cc(Cl)ccc4c(=O)c3c2=O)cc1 [Ex. 11, 7-chlorohydroxy-2-(4-dimethylaminocarboxamide)phenylmethyl-1,2,5,10-tetrahydropyridazino[4,5-b]quinoline-1,10-dione]		Test C (% Inh.): percent decrease in hyperalgesia [3]: 80%; Test C MED (minimum effective dose) [3]: 15 mg/kg/day
O=C(Nc1ccc(Cn2nc(O)c3[nH]c4cc(Cl)ccc4c(=O)c3c2=O)cc1)N1CCCC1 [Ex. 13, 7-chloro-4-hydroxy-2-(4pyrrolidinylcarboxamide)phenylmethyl-1,2,5,10-tetrahydropyridazino[4,5-b]quinoline-1,10-dione]	67.5 nM	
O=C(Nc1cccc(Cn2nc(O)c3[nH]c4cc(Cl)ccc4c(=O)c3c2=O)c1)N1CCCC1 [Ex. 15, 7-Chloro-4-hydroxy-2-(3-pyrrolidinylcarboxamide)phenylmethyl-1,2,5,10-tetrahydropyridazino[4,5-b]quinoline-1,10-dione]	15.6 nM	
O=C(Nc1ccccc1)Nc1cccc(Cn2nc(O)c3[nH]c4cc(Cl)ccc4c(=O)c3c2=O)c1 [Ex. 18, 7-chloro-4-hydroxy-2-(3-phenylaminocarboxamide)phenylmethyl-1,2,5,10-tetrahydropyridazino[4,5-b]quinoline-1,10-dione]	79.9 nM	
O=C(Nc1cccc(Cn2nc(O)c3[nH]c4cc(Cl)ccc4c(=O)c3c2=O)c1)NC1CCCCC1 [Ex. 19, 7-chloro-4-hydroxy-2-(3-cyclohexylaminocarboxamide)phenylmethyl-1,2,5,10-tetrahydropyridazino[4,5-b]quinoline-1,10-dione]	33.3 nM	
O=c1c2ccc(Cl)cc2[nH]c2c(O)nn(Cc3ccc(I)cc3)c(=O)c12 [Ex. 20, 7-Chloro-4-hydroxy-2-(4-iodophenylmethyl)-1,2,5,10-tetrahydropyridazino[4,5-b]quinoline-1,10-dione]	199 nM	
O=c1c2ccc(Cl)cc2[nH]c2c(O)nn(Cc3ccc(C#CCO)cc3)c(=O)c12 [Ex. 21]	1 nM	
COCCNC(=O)c1ccc(Cn2nc(O)c3[nH]c4cc(Cl)ccc4c(=O)c3c2=O)cc1 [Ex. 23]	141 nM	
CNC(=O)c1cccc(Cn2nc(O)c3[nH]c4cc(Cl)ccc4c(=O)c3c2=O)c1 [Ex. 25, 7-Chloro-4-hydroxy-2-[3-(methylaminocarbonyl)-benzyl]-1,2,5,10-tetrahydropyridazino[4,5-b]quinoline-1,10-dione]	126 nM	
COCCN(CCOC)C(=O)c1cccc(Cn2nc(O)c3[nH]c4cc(Cl)ccc4c(=O)c3c2=O)c1 [Ex. 27, 7-Chloro-4-hydroxy-2-[3-(di-(2-methoxy)ethyl)aminocarbonylbenzyl]-1,2,5,10-tetrahydropyridazino[4,5-b]quinoline-1,10-dione]	191 nM	
O=C(c1ccc(Cn2nc(O)c3[nH]c4cc(Cl)ccc4c(=O)c3c2=O)cc1)N1CCOCC1 [Ex. 29, 7-Chloro-4-hydroxy-2-[4-(morpholine-4-carbonyl)-benzyl]-1,2,5,10-tetrahydropyridazino[4,5-b]quinoline-1,10-dione]	88 nM	
CC(=O)Nc1ccc(Cn2nc(O)c3[nH]c4cc(Cl)ccc4c(=O)c3c2=O)cc1 [Ex. 30, 7-Chloro-4-hydroxy-2-[4-(methylcarbonyl-amino)-benzyl]-1,2,5,10-tetrahydropyridazino[4,5-b]quinoline-1,10-dione]	98 nM	
